From patent US10106502B2, “Direct inhibitors of Keap1-Nrf2 interaction as antioxidant inflammation modulators” (Rutgers, The State University of New Jersey, priority 2011, dated 2018)

Experiments:
[1] = tested on: CellSensor® ARE-bla Hep G2 cell line; experiment: cell-based ARE β-lactamase reporter assay; design: species or system human
[2] = biological target: T1, Keap1 Kelch domain (Homo sapiens, UniProt Q14145); experiment: FP assay, dose-response retest of HTS hits; type: binding; design: Human Keap1 Kelch domain protein was cloned into expression vector pET15b; inferred from vector pET15b and Ni-NTA purification) (N); made in house; host or cells: E. coli BL21 (DE3)
T1 sequence (Q14145 321-609 limits assumed): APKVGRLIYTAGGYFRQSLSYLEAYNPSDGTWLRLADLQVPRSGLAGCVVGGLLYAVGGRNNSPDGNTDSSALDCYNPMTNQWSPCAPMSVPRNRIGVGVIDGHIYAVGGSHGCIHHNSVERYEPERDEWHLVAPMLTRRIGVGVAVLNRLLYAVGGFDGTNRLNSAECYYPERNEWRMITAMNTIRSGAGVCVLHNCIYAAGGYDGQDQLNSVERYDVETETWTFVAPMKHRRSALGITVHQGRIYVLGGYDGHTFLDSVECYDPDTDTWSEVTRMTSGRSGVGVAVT
Protocol: Human Keap1 Kelch domain protein was cloned into expression vector pET15b and transformed into E. coli BL21 (DE3) strain. The protein was purified through Ni-NTA affinity column. Purified protein was stored in the buffer containing 20 mM HEPES (pH7.4), 5 mM DTT at −80° C.
2) 60 mL of 8 μM Ac-9mer-Nrf2 was prepared by taking 0.48 mL of 1 mM Ac-9mer-Nrf2 in 100% DMSO in 60 mL FP buffer 3) 500 mL of 400 nM Keap1 Kelch domain was prepared by taking 9 mL of 0.75 mg/mL Keap1 Kelch domain in 500 mL FP buffer.
10 nM FITC-9mer-Nrf2-NH2, 100 nM Kelch Kelch domain.
The first of these assays is an FP assay that uses a fluorescently labeled Nrf2 peptide amide as the probe and directly measures the displacement of fluorescent probe from the Nrf2-binding site of Keap1 Kelch domain by inhibitors via changes in fluorescence anisotropy. […] The second of the fluorescence-based assays is a time-resolved fluorescence energy transfer (TR-FRET) assay which uses an in situ labeling method we recently developed to attach a lanthanide chelate to Keap1 Kelch domain as the FRET donor and fluorescein-labeled Nrf2 peptide as the acceptor. One advantage of the TR-FRET assay is that it is less susceptible to compound interference than an FP assay.

[3] = biological target: T1, Keap1 Kelch domain; experiment: SPR-based solution competition assay; type: binding; design: 40 nM of Keap1 Kelch domain was incubated in the presence of test compounds; inferred from vector pET15b and Ni-NTA purification of the one described Kelch preparation) (N); made in house; host or cells: E. coli BL21 (DE3)
[4] = Keap1-retest in dose, 8-point FP dose-response of HTS hits

SMILES	IC50 [2, 4]	also measured
Cc1ccc(S(=O)(=O)Nc2cc(C(C(=O)OC(C)C)C(=O)C(F)(F)F)c(O)c3ccccc23)c(C)c1 (racemic) [LH602, 4-[[(2,4-Dimethylphenyl)sulfonyl]amino]-1-hydroxy-α-(2,2,2-trifluoroacetyl)-2-naphthaleneacetic acid, 1-methylethyl ester]	2.7 µM	EC50 ([1]; Homo sapiens, HepG2, read-out: EC50 of ARE-inducing activity): 16 to 18 µM; IC50 ([2]; resynthesized compound): 3 µM; Kd ([3]; Keap1 Kelch domain, SPR, read-out: Kd (Keap1 binding affinity)): 1.7 µM
O=C(O)[C@@H]1CCCC[C@@H]1C(=O)N1CCc2ccccc2C1CN1C(=O)c2ccccc2C1=O (relative stereo) [LH601C/D]		ARE-inducing activity (in words) [1]: inactive
O=C(O)[C@H]1CCCC[C@H]1C(=O)N1CCCCC1CN1C(=O)c2ccccc2C1=O (relative stereo) [LH641, cis-2-(2-((1,3-dioxoisoindolin-2-yl)methyl)piperidine-1-carbonyl)cyclohexane carboxylic acid]		binding to Keap1 Kelch domain (in words) [3]: complete loss of binding
NS(=O)(=O)c1cc(C(=O)NC2CCSc3ccccc32)ccc1Cl (stereo not drawn) [BRD-A83249228-001-07-1, 3-(Aminosulfonyl)-4-chloro-N-(3,4-dihydro-2H-1-benzothiopyran-4-yl)benzamide]	135 µM	
COc1ccc(C(C)=NNc2ccc([N+](=O)[O-])cc2S(=O)(=O)Nc2ccccc2C(=O)O)c(OC)c1 [BRD-K09114961-001-03-6, 2-[[[2-[2-[1-(2,4-dimethoxyphenyl)ethylidene]hydrazinyl]-5-nitrophenyl]sulfonyl]amino] benzoic acid]	26 µM	
O=C(O)c1cc(N2C(=O)C=CC2=O)cc(N2C(=O)C=CC2=O)c1 [BRD-K11951445-001-04-1, 3,5-Bis(2,5-dihydro-2,5-dioxo-1H-pyrrol-1-yl)-benzoic acid]	19 µM	
COc1cc(NS(=O)(=O)c2ccc(NC(=S)NC(=O)/C=C/c3ccco3)cc2)ncn1 [BRD-K42553821-001-05-9, 3-(2-Furanyl)-N-[[[4-[[(6-methoxy-4-pyrimidinyl)amino]sulfonyl]phenyl]amino]-thioxomethyl]-2-Propenamide]	91 µM	
CC1=C[C@@H]2c3cccc4[nH]cc(c34)C[C@H]2N(C)C1 [BRD-K56215778-001-06-9, 8,9-Didehydro-6,8-dimethyl-ergoline]	37 µM	
O=C1CCCc2oc3c(cc(NS(=O)(=O)c4ccc5c6c(cccc46)C(=O)N5)c4ccccc43)c21 [BRD-K91732811-001-06-9, 1,2-Dihydro-2-oxo-N-(7,8,9,10-tetrahydro-7-oxobenzo[b]naphtho[2,1-d]furan-5-yl) benz[cd]indole-6-sulfonamide]	55 µM	
